Tested on: 935938-334-R-J1-PDC complex spheroid viability
Experiment: Anticancer human tumor 935938-334-R-J1-PDC patient-derived small intestine adenocarcinoma cell line growth inhibition [POLQ]
Settings: for IC50: curve of first compound; for viability, T/C: stronger effect = lower value
Method in brief: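 PDC + HUVEC + MSC complex spheroids; POLQ inhibitors ± partner drugs; top conc. at/near clinical Cmax, else 10 microM (SN-38 1 microM), half-log dilutions; 37 degrees C, 5% CO2.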

[1] = second compound 0.0316 µM, first compound 0.0316 µM
[2] = second compound 0.0316 µM, first compound 0.1 µM
[3] = second compound 0.0316 µM, first compound 0.316 µM
[4] = second compound 0.0316 µM, first compound 1 µM
[5] = second compound 0.0316 µM, first compound 3.16 µM
[6] = second compound 0.0316 µM, first compound 10 µM
[7] = second compound 0.1 µM, first compound 0.0316 µM
[8] = second compound 0.1 µM, first compound 0.1 µM
[9] = second compound 0.1 µM, first compound 0.316 µM
[10] = second compound 0.1 µM, first compound 1 µM
[11] = second compound 0.1 µM, first compound 3.16 µM
[12] = second compound 0.1 µM, first compound 10 µM
[13] = second compound 0.316 µM, first compound 0.0316 µM
[14] = second compound 0.316 µM, first compound 0.1 µM
[15] = second compound 0.316 µM, first compound 0.316 µM
[16] = second compound 0.316 µM, first compound 1 µM
[17] = second compound 0.316 µM, first compound 3.16 µM
[18] = second compound 0.316 µM, first compound 10 µM
[19] = second compound 1 µM, first compound 0.0316 µM
[20] = second compound 1 µM, first compound 0.1 µM
[21] = second compound 1 µM, first compound 0.316 µM
[22] = second compound 1 µM, first compound 1 µM
[23] = second compound 1 µM, first compound 3.16 µM
[24] = second compound 1 µM, first compound 10 µM
[25] = second compound 3.16 µM, first compound 0.0316 µM
[26] = second compound 3.16 µM, first compound 0.1 µM
[27] = second compound 3.16 µM, first compound 0.316 µM
[28] = second compound 3.16 µM, first compound 1 µM
[29] = second compound 3.16 µM, first compound 3.16 µM
[30] = second compound 3.16 µM, first compound 10 µM
[31] = second compound 10 µM, first compound 0.0316 µM
[32] = second compound 10 µM, first compound 0.1 µM
[33] = second compound 10 µM, first compound 0.316 µM
[34] = second compound 10 µM, first compound 1 µM
[35] = second compound 10 µM, first compound 3.16 µM
[36] = second compound 10 µM, first compound 10 µM
[37] = second compound 0.0316 µM, first compound 0.00316 µM
[38] = second compound 0.0316 µM, first compound 0.01 µM
[39] = second compound 0.1 µM, first compound 0.00316 µM
[40] = second compound 0.1 µM, first compound 0.01 µM
[41] = second compound 0.316 µM, first compound 0.00316 µM
[42] = second compound 0.316 µM, first compound 0.01 µM
[43] = second compound 1 µM, first compound 0.00316 µM
[44] = second compound 1 µM, first compound 0.01 µM
[45] = second compound 3.16 µM, first compound 0.00316 µM
[46] = second compound 3.16 µM, first compound 0.01 µM
[47] = second compound 10 µM, first compound 0.00316 µM
[48] = second compound 10 µM, first compound 0.01 µM
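Also: spheroids exposed to drugs for seven days before viability read.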
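For viability, T/C in this document: 100% = DMSO vehicle control wells.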

CC1COCCN1c1cc(C2(S(C)(=N)=O)CC2)nc(-c2ccnc3[nH]ccc23)n1 (stereo not drawn) + Nc1ccc(C#CCN(C(=O)Cc2ncc(C(F)(F)F)cc2C(F)(F)F)c2ccc(F)cc2)nn1
IC50 (second compound 0.0316 µM): 3830 nM | IC50 (second compound 0.1 µM): 2330 nM | IC50 (second compound 0.316 µM): 3220 nM | IC50 (second compound 1 µM): 2480 nM | IC50 (second compound 3.16 µM): 1900 nM | IC50 (second compound 10 µM): 1810 nM | viability, T/C [1]: 105% | viability, T/C [2]: 83.7% | viability, T/C [3]: 97.7% | viability, T/C [4]: 76.1% | viability, T/C [5]: 58.7% | viability, T/C [6]: 15.2% | viability, T/C [7]: 104% | viability, T/C [8]: 117% | viability, T/C [9]: 91.8% | viability, T/C [10]: 91% | viability, T/C [11]: 35% | viability, T/C [12]: 16% | viability, T/C [13]: 83.9% | viability, T/C [14]: 96.8% | viability, T/C [15]: 96.7% | viability, T/C [16]: 82.8% | viability, T/C [17]: 50.9% | viability, T/C [18]: 14.2% | viability, T/C [19]: 118% | viability, T/C [20]: 98.6% | viability, T/C [21]: 94.2% | viability, T/C [22]: 78.2% | viability, T/C [23]: 38.8% | viability, T/C [24]: 22.6% | viability, T/C [25]: 93.5% | viability, T/C [26]: 93.2% | viability, T/C [27]: 108% | viability, T/C [28]: 70.5% | viability, T/C [29]: 34.1% | viability, T/C [30]: 17.9% | viability, T/C [31]: 106% | viability, T/C [32]: 111% | viability, T/C [33]: 137% | viability, T/C [34]: 75.3% | viability, T/C [35]: 36.8% | viability, T/C [36]: 16%

CC[C@@]1(O)C(=O)OCc2c1cc1n(c2=O)Cc2cc3c(CN(C)C)c(O)ccc3nc2-1 + COC1C(OC(N)=O)C(O)C(Oc2ccc3c(O)c(NC(=O)c4ccc(O)c(CC=C(C)C)c4)c(=O)oc3c2C)OC1(C)C
IC50 (second compound 0.0316 µM): > 100 nM | IC50 (second compound 0.1 µM): 80.8 nM | IC50 (second compound 0.316 µM): 93.3 nM | IC50 (second compound 1 µM): 90.3 nM | IC50 (second compound 3.16 µM): 91.5 nM | IC50 (second compound 10 µM): > 100 nM | viability, T/C (second compound 0.0316 µM, first compound 0.000316 µM): 90.7% | viability, T/C (second compound 0.0316 µM, first compound 0.001 µM): 81.6% | viability, T/C [37]: 98.1% | viability, T/C [38]: 92.1% | viability, T/C [1]: 86.1% | viability, T/C [2]: 56.5% | viability, T/C (second compound 0.1 µM, first compound 0.000316 µM): 94.2% | viability, T/C (second compound 0.1 µM, first compound 0.001 µM): 81.4% | viability, T/C [39]: 100% | viability, T/C [40]: 90.9% | viability, T/C [7]: 79% | viability, T/C [8]: 43% | viability, T/C (second compound 0.316 µM, first compound 0.000316 µM): 94.7% | viability, T/C (second compound 0.316 µM, first compound 0.001 µM): 72.9% | viability, T/C [41]: 103% | viability, T/C [42]: 97.7% | viability, T/C [13]: 94.8% | viability, T/C [14]: 47.2% | viability, T/C (second compound 1 µM, first compound 0.000316 µM): 109% | viability, T/C (second compound 1 µM, first compound 0.001 µM): 83.1% | viability, T/C [43]: 76.4% | viability, T/C [44]: 74.8% | viability, T/C [19]: 97.3% | viability, T/C [20]: 46.3% | viability, T/C (second compound 3.16 µM, first compound 0.000316 µM): 127% | viability, T/C (second compound 3.16 µM, first compound 0.001 µM): 76.6% | viability, T/C [45]: 79.3% | viability, T/C [46]: 77% | viability, T/C [25]: 104% | viability, T/C [26]: 46.4% | viability, T/C (second compound 10 µM, first compound 0.000316 µM): 109% | viability, T/C (second compound 10 µM, first compound 0.001 µM): 133% | viability, T/C [47]: 89.3% | viability, T/C [48]: 67.2% | viability, T/C [31]: 71.7% | viability, T/C [32]: 49.3%

CC1COCCN1c1cc(C2(O)CC3CCC(C2)O3)c2cnn(-c3ccn[nH]3)c2n1 (stereo not drawn) + Nc1ccc(C#CCN(C(=O)Cc2ncc(C(F)(F)F)cc2C(F)(F)F)c2ccc(F)cc2)nn1
IC50 (second compound 0.0316 µM): 74.7 nM | IC50 (second compound 0.1 µM): 171 nM | IC50 (second compound 0.316 µM): 102 nM | IC50 (second compound 1 µM): 157 nM | IC50 (second compound 3.16 µM): 125 nM | IC50 (second compound 10 µM): 122 nM | viability, T/C [1]: 71.3% | viability, T/C [2]: 42.2% | viability, T/C [3]: 28% | viability, T/C [4]: 19.2% | viability, T/C [5]: 15.8% | viability, T/C [6]: 12.8% | viability, T/C [7]: 83.8% | viability, T/C [8]: 62.7% | viability, T/C [9]: 35.5% | viability, T/C [10]: 18.7% | viability, T/C [11]: 15.4% | viability, T/C [12]: 12.5% | viability, T/C [13]: 107% | viability, T/C [14]: 44.9% | viability, T/C [15]: 34.7% | viability, T/C [16]: 19.6% | viability, T/C [17]: 18.1% | viability, T/C [18]: 9.14% | viability, T/C [19]: 75.9% | viability, T/C [20]: 62.8% | viability, T/C [21]: 29.9% | viability, T/C [22]: 22.5% | viability, T/C [23]: 15.3% | viability, T/C [24]: 9.68% | viability, T/C [25]: 99.3% | viability, T/C [26]: 55.3% | viability, T/C [27]: 28.2% | viability, T/C [28]: 21.3% | viability, T/C [29]: 16.1% | viability, T/C [30]: 11.8% | viability, T/C [31]: 94.7% | viability, T/C [32]: 54.4% | viability, T/C [33]: 29.5% | viability, T/C [34]: 15.7% | viability, T/C [35]: 18.7% | viability, T/C [36]: 10.8%

CCc1c2c(nc3ccc(O)cc13)-c1cc3c(c(=O)n1C2)COC(=O)[C@]3(O)CC + Cc1cccc(N(C)C(=O)C2C(O)CCN2c2nc(C)cc(C(F)(F)F)c2C#N)c1
IC50 (second compound 0.0316 µM): 15.8 nM | IC50 (second compound 0.1 µM): 19.9 nM | IC50 (second compound 0.316 µM): 24.5 nM | IC50 (second compound 1 µM): 22.7 nM | IC50 (second compound 3.16 µM): 24.3 nM | IC50 (second compound 10 µM): 26.1 nM | viability, T/C [37]: 96.3% | viability, T/C [38]: 55.6% | viability, T/C [1]: 41.4% | viability, T/C [2]: 33.8% | viability, T/C [3]: 36.6% | viability, T/C [4]: 29.1% | viability, T/C [39]: 98.1% | viability, T/C [40]: 66.6% | viability, T/C [7]: 38.9% | viability, T/C [8]: 32.5% | viability, T/C [9]: 33.4% | viability, T/C [10]: 32.4% | viability, T/C [41]: 109% | viability, T/C [42]: 83% | viability, T/C [13]: 40.7% | viability, T/C [14]: 34% | viability, T/C [15]: 38.3% | viability, T/C [16]: 35.4% | viability, T/C [43]: 82.9% | viability, T/C [44]: 63.2% | viability, T/C [19]: 43.5% | viability, T/C [20]: 36.6% | viability, T/C [21]: 33.3% | viability, T/C [22]: 29.2% | viability, T/C [45]: 87.6% | viability, T/C [46]: 85.3% | viability, T/C [25]: 39.4% | viability, T/C [26]: 37.7% | viability, T/C [27]: 39.3% | viability, T/C [28]: 31.7% | viability, T/C [47]: 115% | viability, T/C [48]: 66.9% | viability, T/C [31]: 43.2% | viability, T/C [32]: 45.9% | viability, T/C [33]: 35% | viability, T/C [34]: 31.5%
